According to US5686486A, “4-hydroxy-benzopyran-2-ones and 4-hydroxy-cycloalkyl[b]pyran-2-ones useful to treat retroviral infections” (priority 1995, dated 1997):
pKi: −log10 of the molar value.

Columns and labels:
HIV-1 protease [1] = molecular target: T1, HIV-1 protease (Human immunodeficiency virus type 1 group M subtype B, UniProt P04585); assay: biochemical; conditions: for inhibition at 0.123 µM: read-out: HIV-1 Protease % Inhib, dose 0.123 uM; for inhibition at 0.37 µM: read-out: HIV-1 Protease % Inhib, dose 0.370 uM; for inhibition at 1.1 µM: read-out: HIV-1 Protease % Inhib, dose 1.100 uM; for inhibition at 3.3 µM: read-out: HIV-1 Protease % Inhib, dose 3.300 uM; for inhibition at 10 µM: read-out: HIV-1 Protease % Inhib, dose 10.000 uM; for inhibition at 30 µM: read-out: HIV-1 Protease % Inhib, dose 30.000 uM
Method in brief: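 Percent inhibition derived from fluorescent cleavage product separated by filtration after streptavidin-bead capture of intact biotin/FITC substrate. Reaction: enzyme (10 μl, 0.1 μM stock) with substrate (20 μl, 0.2 μM stock) and compound, 1 h at room temperature in dark, pH 5.5 acetate buffer with 1.0 M NaCl and 0.05% NP-40.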

HIV-1 protease [2] = molecular target: T1, HIV-1 protease; assay: biochemical; conditions: read-out: HIV-1 FITC KI
Method in brief: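 Enzyme (40 nM stock) and substrate (200 μM stock) incubated with inhibitor, 24–48 two-fold serial concentrations, for 90 min at room temperature, then quenched with avidin beads. Nonlinear least-squares analysis gives Ki; a known-Ki inhibitor validates each run.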

SMILES | inhibition at 0.123 µM (HIV-1 protease [1]) [%] | inhibition at 0.37 µM (HIV-1 protease [1]) [%] | inhibition at 1.1 µM (HIV-1 protease [1]) [%] | inhibition at 3.3 µM (HIV-1 protease [1]) [%] | inhibition at 10 µM (HIV-1 protease [1]) [%] | inhibition at 30 µM (HIV-1 protease [1]) [%] | pKi (HIV-1 protease [2]) | HIV-1 Protease % Inhib (HIV-1 protease [1]; dose 0.123 uM) [%] | HIV-1 Protease % Inhib (HIV-1 protease [1]; dose 0.370 uM) [%] | HIV-1 Protease % Inhib (HIV-1 protease [1]; dose 1.100 uM) [%] | HIV-1 Protease % Inhib (HIV-1 protease [1]; dose 3.300 uM) [%] | HIV-1 Protease % Inhib (HIV-1 protease [1]; dose 10.000 uM) [%] | HIV-1 Protease % Inhib (HIV-1 protease [1]; dose 30.000 uM) [%] | inhibition at 0.41 µM (HIV-1 protease [1]; read-out: HIV-1 Protease % Inhib, dose 0.410 uM) [%] | inhibition at 1.23 µM (HIV-1 protease [1]; read-out: HIV-1 Protease % Inhib, dose 1.230 uM) [%] | inhibition at 3.7 µM (HIV-1 protease [1]; read-out: HIV-1 Protease % Inhib, dose 3.700 uM) [%] | inhibition at 11 µM (HIV-1 protease [1]; read-out: HIV-1 Protease % Inhib, dose 11.000 uM) [%] | inhibition at 33 µM (HIV-1 protease [1]; read-out: HIV-1 Protease % Inhib, dose 33.000 uM) [%] | inhibition at 100 µM (HIV-1 protease [1]; read-out: HIV-1 Protease % Inhib, dose 100.000 uM) [%]
CC(C)CC(c1cccc(NS(=O)(=O)c2cn(C)cn2)c1)c1c(O)c2c(oc1=O)CCCCCC2 (centres unmarked) [Example 427, 1H-Imidazole-4-sulfonamide, N-[3-[1-(5,6,7,8,9,10-hexahydro-4-hydroxy-2-oxo-2H-cycloocta[b]pyran-3-yl)-3-methylbutyl]phenyl]-1-methyl-] | 94.2 | 92.8 | 91.2 | 90 | 89.6 | 81.9 | 9.19 |  |  |  |  |  |  |  |  |  |  |  | 
O=c1oc2c(c(O)c1C(c1cccc(NS(=O)(=O)CCCCl)c1)C1CC1)CCCCCC2 (centres unmarked) [Example 331, 3-Chloro-N-[3-[cyclopropyl(5,6,7,8,9,10-hexahydro-4-hydroxy-2-oxo-2H-cycloocta[b]pyran-3-yl)methyl]phenyl]-1-propanesulfonamide] | 66.4 | 86.9 | 99.2 | 119 | 121 | 105 | 8.32 |  |  |  |  |  |  |  |  |  |  |  | 
CCC(O)C1CCCCCc2c1oc(=O)c(C(c1ccccc1)C1CC1)c2O (centres unmarked) [Example 134, 3-(Cyclopropyl-phenyl-methyl)-4-hydroxy-10-(1-hydroxy-propyl)-5,6,7,8,9,10-hexahydro-cycloocta[b]pyran-2-one] | 54 | 97.7 | 104 | 111 | 111 | 109 | 7.82 |  |  |  |  |  |  |  |  |  |  |  | 
Nc1cccc(S(=O)(=O)Nc2cccc(C(c3c(O)c4c(oc3=O)CCCCCC4)C3CC3)c2)c1 (centres unmarked) [Example 353 (First Title Compound), 3-Amino-N-[3-[cyclopropyl(5,6,7,8,9,10-hexahydro-4-hydroxy-2-oxo-2H-cycloocta[b]pyran-3-yl)methyl]phenyl]-benzenesulfonamide] | 48.6 | 83.1 | 92.7 | 97.3 | 103 | 92.9 | 8.65 |  |  |  |  |  |  |  |  |  |  |  | 
CCC(c1cccc(NC(=O)CCNC(=O)OC(C)(C)C)c1)c1c(O)c2c(oc1=O)CCCCCC2 (centres unmarked) [Example 219, Carbamic acid, [3-[[3-[1-(5,6,7,8,9,10-hexahydro4-hydroxy-2-oxo-2H-cycloocta[b]pyran-3-yl)propyl]phenyl]amino]-3-oxopropyl]-, 1,1-dimethylethyl ester] | 52.1 | 81 | 92.5 | 100 | 109 | 97.3 | 7.98 |  |  |  |  |  |  |  |  |  |  |  | 
CCCC(c1cccc(NS(=O)(=O)c2ccc(C#N)cc2)c1)c1c(O)c2c(oc1=O)CCCCCC2 (single isomer, unassigned) [Example 439, (R or S)-Benzenesulfonamide, 4-cyano-N-[3-[1-(5,6,7,8,9,10-hexahydro-4-hydroxy-2-oxo-2H-cycloocta[b]pyran-3-yl)butyl]phenyl]-] |  |  |  |  |  |  | 8.52 | 60.96 | 68.15 | 92.17 | 92.32 | 96.45 | 94.26 |  |  |  |  |  | 
CC(C)N=C(Nc1cccc(C(c2c(O)c3c(oc2=O)CCCCCC3)C2CC2)c1)NC(C)C (centres unmarked) [Example 120, N-(3-(cyclopropyl-(4-hydroxy-2-oxo-5,6,7,8,9,10-hexahydro-2H-cycloocta[b]pyran-3-yl)-methyl)-phenyl)-N',N"-diisopropyl-guanidine] |  |  |  |  |  |  | 6.01 |  |  |  |  |  |  | < 10 | 22.2 | 54.6 | 80.7 | 101 | 106
CC(C)C(c1cccc(N)c1)c1c(O)c2c(oc1=O)CCCCCC2 (centres unmarked) [Example 371, 3-[1-(3-Aminophenyl)-2-methylpropyl]-5,6,7,8,9,10-hexahydro-4-hydroxy-2H-cycloocta[b]pyran-2-one] | 86.8 | 109 | 110 | 113 | 108 | 110 | 8.13 |  |  |  |  |  |  |  |  |  |  |  | 
